From patent publication US6472404B1 (priority 2000, dated 2002)

Assays:
HIV-1 protease = HIV-1 protease (Human immunodeficiency virus type 1 group M subtype B, UniProt P04585); experiment: HIV protease inhibition assay (quenched fluorogenic substrate, fluorescence energy transfer)
Procedure: HIV protease inhibitory activity was assessed using an adaptation of the method of Matayoshi. et al. [Matayoshi E. D. et al (1990).
Crude HIV-1 protease was prepared from E. coli pPTΔN. Cultures were grown at 30° in M9 medium supplemented with 0.2% casamino acids, 100 μg/ml ampicillin and 25 μg/ml thiamine until OD600=0.5-0.6, and the temperature was raised to 42° to induce expression of the protease. After 1.5 hours, the cells were harvested and the pellets stored at −70° until required.
The protease was prepared by lysis of the cells in a French pressure cell followed by precipitation of the enzyme with ammonium sulfate at 30% saturation.
The assay buffer comprised 0.1M sodium acetate pH 4.7, 8 mM EDTA, 0.2 M NaCl.
Tubes were incubated for 2 hours at 37° and the reaction was terminated by the addition of 500 μl of a 2:1 mixture of DMSO:50 mM Tricine pH 8.5. Fluorescence was measured in a fluorescence spectrophotometer, excitation λ=340 nm, emission λ=492 nm.

HIV-HXB2 = experiment: Antiviral assay: protection of HIV-infected MT4 cells from cell death (MTT); type: cell-based; details: Human immunodeficiency virus 1, 120 h; MT4 cells infected with HIV-HXB2; 5 days; MTT viability; rounded to nearest whole number
Procedure: Methods 20: 309-321]. The method is based on the ability of compounds to protect HIV-infected T lymphoblastoid cells (MT4 cells) from cell-death mediated by the infection. The endpoint of the assay was calculated as the concentration of compound at which the cell viability of the culture was preserved by 50% (‘50% inhibitory concentration’, IC50). The cell viability of a culture was determined by the uptake of soluble, yellow 3-[4,5-dimethylthiazol-2-yl]-2,5-diphenyltetrazolium bromide (MTT) and its reduction to a purple insoluble formazan salt. After solubilization, spectrophotometric methods were employed to measure the amount of formazan product.
MT4 cells were prepared to be in logarithmic-phase growth and a total of 2×10^6 cells infected with either the wild type or site directed mutant clones of HIV-HXB2 at a multiplicity of approximately 0.0001 infectious units of virus per cell in a total volume of between 200-500 μl. The cells were incubated with virus for one hour at 37° C. then washed in 0.01 M phosphate buffered saline, pH 7.2, and resuspensed in culture medium for incubation in culture with serial dilutions of test compound. The culture medium used was RPMI 1640 without phenol red, supplemented with penicillin, streptomycin, L-glutamine and 10% fetal calf serum (GM10).
Test compounds were prepared as 2 mM solutions in dimethyl sulphoxide (DMSO). Four replicate, serial 2-fold dilutions in GM10 were then prepared and 50 microliter amounts placed in 96-well plates over a final concentration range of […]. Fifty microliters GM10 and 3.75×10^4 infected cells were then added to each well. Control cultures containing no cells (blank), uninfected cells (100% viability; 4 replicates) and infected cells without compound (total virus-mediated cell death; 4 replicates) were also prepared. The cultures were then incubated at 37° C. in a humidified atmosphere of 5% CO2 in air for 5 days.
A fresh solution of 5 mg/mL MTT was prepared in 0.01 M phosphate buffered saline, pH 7.2 and 20 μL added to each culture. The cultures were further incubated as before for 2 hours. They were then mixed by pipetting up and down, and 170 microliters of Triton X-100 in acidified isopropanol (10% v/v Triton X-100 in 1:250 mixture of concentrated HCl in isopropanol) were added and the cultures were mixed again by pipetting up and down. When the formazan deposit was fully solubilized by further mixing, the absorbance (OD) of the cultures was measured at 540 nm and 690 nm wavelength (690 nm readings were used as blanks for artefacts between wells). The percent protection for each treated culture was then calculated from the equation:
OD drug-treated cultures)−(OD untreated virus control cultures) % Protection=100%
(OD uninfected cultures)−(OD untreated virus control cultures)
The IC50 was then obtained from graph plots of percentage protection versus log10 drug concentration.

CC(C)(C)NC(=O)[C@@H]1C[C@@H]2CCCC[C@@H]2CN1C[C@@H](O)[C@H](Cc1ccccc1)NC(=O)CC(C)(C)S(C)(=O)=O [Example 95, N-tert-Butyl-1,2,3,4,4a(S),5,6,7,8,8a(S)-decahydro-1-[2(R)-hydroxy-3(S)-[3-(methanesulfonyl)butyramido]-4-phenylbutyl]-2(S)-piperazinecarboxamide]
IC50 (HIV-1 protease): 61 nM
melting point: 95 to 110 °C
IC50 (HIV-HXB2): 250 nM
